The values that follow come from US20230302131A1, “MPC INHIBITION FOR PRODUCING T-CELLS WITH A MEMORY PHENOTYPE” (UNIVERSITÉ DE LAUSANNE, priority 2020, published 2023).

What all share (assay type): cell-based, mouse
Test [1] deals with histone 3 (H3K4-3Me, H3K27-Ac) in CD8 T cells. Nature of the test: Western blot of histone 3 modifications. The text has this:
(§1) Mechanistically, it was hypothesized by the inventors that epigenetic processes might underlie the observed long-term memory phenotype and anti-tumor activity upon metabolic intervention with MPCi. […] Since acetyl-CoA is the acetyl donor for the acetylation of proteins, amongst which also histones, histone post-translational modifications were examined that are known to make chromatin accessible to transcription factors, a characteristic of memory T cells. […] These are marks known to open chromatin and make it accessible for transcription factor docking. […] Amongst those were Sell, Tcf7 and Ccr7, thereby correlating accessible chromatin with increased mRNA copies (FIG. 3E and see above).
Cells were lysed in RIPA lysis buffer (50 mM TrisHCl pH8, 150 mM NaCl, 1% Triton X 100, 0.5% Sodium deoxycholate, 0.1% SDS) and Halt protease/phosphatase cocktail inhibitors (Roche) and denatured by heat. Proteins were quantified by BCA protein assay kit (Thermo Scientific). Proteins were separated on 12.5% polyacrylamide gradient gels and transferred onto nitrocellulose membranes 0.2 μm (Biorad). Non-specific binding sites were blocked in milk 5% and membranes were incubated with primary antibodies (Cell Signaling). […]

Test [2] relates to OT1 T cells. Nature of the test: RNA sequencing of OT1 T cells. The settings on record: day 7; compared to DMSO. Here is the method:
To evaluate the effects of MPC inhibition on T cell differentiation, OT1 splenocytes were cultured in the presence of 1 μg/ml ovalbumin-derived N4 (SIINFEKL) peptide, 100 IU/ml recombinant human IL-2 (rhIL-2) and the MPC inhibitor (MPCi) UK5099 at 75 μM or control DMSO for 3 days. The inhibitor or DMSO was then washed away and the cells were cultured for 4 more days in the presence of 100 IU/ml IL-2 and 10 ng/ml rhIL-7 (FIG. 1A). […] Thus, the increase in the memory markers upon MPCi in vitro treatment occurs at the transcriptional level.
[…] Purity-filtered reads were adapters and quality trimmed with Cutadapt (v. 1.8, Martin 2011). Reads matching to ribosomal RNA sequences were removed with fastq_screen (v. 0.9.3). Remaining reads were further filtered for low complexity with reaper (v. 15-065, Davis et al. 2013). Reads were aligned against Mus musculus.GRCm38.86 genome using STAR (v. 2.5.2b, Dobin et al. 2013). The number of read counts per gene locus was summarized with htseq-count (v. 0.6.1, Anders et al. 2014) using Mus musculus.GRCm38.86gene annotation. Quality of the RNA-seq data alignment was assessed using RSeQC (v. 2.3.7, Wang et al. 2012). Reads were also aligned to the Mus musculus.GRCm38.86 transcriptome using STAR (v. 2.5.2b, Dobin et al. 2013) and the estimation of the isoforms abundance was computed using RSEM (v. 1.2.31, Li and Dewey 2011). Statistical analysis was performed for genes in R (R version 3.4.0). An analysis with all genes, including mitochondria, was done. Genes with less than one count per million in all samples were filtered out. Library sizes were scaled using TMM normalization (EdgeR package version 3.14.0; Robinson et al. 2010) and log-transformed with EdgeR cpm function.
Differential expression was computed with limma (Ritchie et al. 2015) by fitting the samples into a linear model using all conditions as factors and correcting for batch effect by introducing factors for the replicates (=paired analysis).

Test [3] concerns OT2 CD4 T cells. In words: OT2 CD4 T cell co-culture with dendritic cells, CD62L by flow cytometry. The settings on record: 75 μM; day 7; vs DMSO. Here is the method:
Naïve CD4 T cells were isolated by negative selection (Stem Cell Technologies) from the spleen of OT2 mice. Dendritic cells were isolated from spleens of C57BL/6 mice by CD11c positive selection (Stem Cell Technologies). 2×10^5 CD4 T cells were co-cultured with 1×10^6 dendritic cells in RPMI medium supplemented with 10% FBS, 1% Penicillin/Streptomycin, 50 μM β-mercaptoethanol, 1% HEPES, 1× Non-essential amino acids (Gibco 11140-035), 2 mM L-glutamine and 1 mM Sodium Pyruvate. T cells were activated by adding 1 μg/ml Ovalbumine peptide (323-339, ISQAVHAAHAEINEAGR) and 100 IU/ml rhIL-2, in the presence of 75 μM UK5099 or DMSO. Cells were split on day 4 and re-cultured in fresh medium containing 100 IU/ml rhIL-2, in the presence of 75 μM UK5099 or DMSO.
An experiment has been performed on mouse T cells in order to evaluate if MPC inhibition also promotes memory marker expression in CD4 T cells. As indicated in the experimental scheme (FIG. 5A), CD4 T cells from OT2 mice were activated by co-culture with dendritic cells. OT2 mice are transgenic for an […] recognizing specifically a chicken ovalbumine peptide 323-339 associated with the mouse MHC class II molecule I-Ab. We activated OT2 CD4 T cells by co-culture with dendritic cells loaded with […] of the ovalbumine peptide in the presence of 100 IU/ml recombinant human IL2 in the presence of 75 μM UK5099 or DMSO control. […]
(Flow cytometry measures light scatter and fluorescence of single cells or particles in a stream.)

Test [4] concerns OT1 CD8 T cells. In words: ATAC sequencing of OT1 CD8 T cells. As to conditions: ATAC-seq after 3 days of culture; vs DMSO.
Description: as §1
After 3 days of OT1 CD8 T cell culture, 5×10^4 cells were collected and transposed as described before (Buenrostro et al, Transposition of native chromatin for multimodal regulatory analysis and personal epigenomics. Nat Methods. 2013 December; 10(12): 1213-1218.). Amplified transposed fragments were sequenced on an Illumina HiSeq platform.
Computations of the analysis were performed at the Vital-IT Center for high-performance computing of the SIB Swiss Institute of Bioinformatics. Sequencing reads contained in fastq files were aligned to the Mouse mm10 reference genome using Bowtie2 v.2.3.4.1, and alignment files were manipulated with samtools v.1.8. Peak calling was performed with Macs2 v.2.1.1. […]

For the molecule `N#CC(=Cc1cn(-c2ccccc2)c2ccccc12)C(=O)O` [UK5099, 2-cyano-3-(1-phenyl-1H-indol-3-yl)-2-propenoic acid], in test [1], the “acetylation of lysine 27 on histone 3 (H3K27-Ac)” value is reported as “increase” and the “trimethylation of lysine 4 on histone 3 (H3K4-3Me)” value is “increase”. Further, in test [2], the “Ccr7 expression, RNA sequencing” value was “increased”; the “Sell (CD62L) expression, RNA sequencing” value is given as “at least 1.5 fold”; the “Tcf7 expression, RNA sequencing” value is “increased”. In addition, the “CD62L-positive population of mouse CD4 T cells” value in test [3] is on record as “strong increase”. The “genes associated with more accessible chromatin” value in test [4] was determined as 981 genes.
